Results on 19 compounds are retold here after patent US9561228B2 (Celgene Avilomics Research, Inc., priority 2013, dated 2017).

Experiment [1] deals with T1, MEK1 activated ERK1 (Homo sapiens, UniProt P27361).
T1 construct: purchased Millipore (Billerica, Mass.) 14-439-K
Kind of experiment: Omnia continuous-read kinase assay for potency against MEK1 activated ERK1. In kind it is biochemical. As to conditions: MEK1 activated ERK1, ATP at KM; read-out: ERK1 Omnia WT ATP KM IC50. From the text: Omnia Assay Protocol for Potency Assessment Against MEK1 Activated ERK1:
The protocol below describes continuous-read kinase assays to measure potency of compounds against activated ERK1 enzyme. The mechanics of the assay platform are best described by the vendor (Invitrogen, Carlsbad, Calif.) on their website at the following URL: invitrogen.com/site/us/en/home.html.
Briefly, a 1.25× stock of ERK1 enzyme (14-439-K) from Millipore (Billerica, Mass.), 5×ATP (AS001A) and ST17-Sox conjugated peptide substrate (KNZ1171C) were prepared in 1× kinase reaction buffer consisting of 20 mM Tris, pH 7.5, 5 mM MgCl2, 1 mM EGTA, 5 mM β-glycerophosphate, 5% glycerol (10× stock, KB002A) and 0.2 mM DTT. 10 μL of ATP/ST17-sox peptide substrate mix was combined with 0.5 μL volume of 100% DMSO and serially diluted compounds were prepared in 100% DMSO in a Corning (#3574) 384-well, white, non-binding surface microtiter plate (Corning, N.Y.). Kinase reactions were started with the addition of 40 μL of ERK1 solution and monitored every 71 seconds for 30-240 minutes at λex360/λem485 in a Synergy plate reader from BioTek (Winooski, Vt.). At the conclusion of each assay, progress curves from each well were examined for linear reaction kinetics and fit statistics (R^2, 95% confidence interval, absolute sum of squares). Initial velocity (0 minutes to ˜30+ minutes) from each reaction was determined from the slope of a plot of relative fluorescence units vs time (minutes or seconds) and then plotted against inhibitor concentration to estimate ^AppIC50 from log [Inhibitor] vs Response, Variable Slope model in GraphPad Prism from GraphPad Software (San Diego, Calif.).
[Reagent] used in optimized protocol:
[ERK1]=4 nM, [ATP]=50 μM, [ST17-Sox]=10 μM (ATP ^appKM 48 μM)
The results of this assay show the degree of inhibition of ERK activity, which is a direct measurement of inhibition of ERK activity. Results from this assay are reported in Table A under the column “ERK1 Omnia WT ATP KM IC50 (nM).”

Experiment [2] concerns ERK1/2 phosphorylation of p90RSK in HT29 cells. Briefly: pRSK MSD Assay in HT29 cells. In kind it is cell-based. The conditions noted are these: Homo sapiens, HT-29, read-out: ERK1/ERK2 PRSK MSD HT29 EC50. The procedure:
The protocol below describes an assay to measure the kinase activity of ERK1/2 to phosphorylate a substrate, p90RSK, in the presence or absence of a test compound. This experiment was conducted using a Mesoscale Discovery plate. The day before the assay, HT29 cells were split and plated at 50,000 cells/well in complete growth media. After allowing cells to adhere, the media was removed and replaced with media containing 0.1% FBS and incubated overnight. Blank MSD plates (Mesoscale Discovery, Cat # L15XA3) were coated with 25 μl/well RSK capture antibody (BD Biosciences, Cat. #610226) and incubated at 4° C. overnight, then blocked with 150 μl of 3% BSA solution. The next day, the media from the cell culture plate was removed and replaced with 100 μl of media containing a test compound and incubated for 120 minutes at 37° C. The media was removed and replaced with 55 μl per well of lysis buffer with protease inhibitors (Roche Biosciences, Cat. #11836170001) and phosphatase inhibitors (Sigma-Aldrich, Cat. # P-0044 and P-5726), followed by incubation at 4° C. for 30 minutes. 50 μl of lysate was transferred to a blocked MSD plate, followed by incubation at room temperature for 2 hours under constant shaking. The plate was washed 3 times with MSD wash buffer (Mesoscale Discovery, Cat. # R617TX), and 25 μl/well phospho-RSK (pRSK) detection antibody (Cell Signaling Technology, Cat. #9335) was added with Sulfo-tagged detection antibody (Mesoscale Discovery, Cat. # R32AB-1) diluted in 1% BSA in MSD wash buffer. This mixture was incubated for 1 hour at room temperature under constant shaking. The plate was washed 3 times, and 150 μl 1×MSD read buffer was added, followed by signal detection in an MSD plate reader.

T1 sequence (P27361 whole entry): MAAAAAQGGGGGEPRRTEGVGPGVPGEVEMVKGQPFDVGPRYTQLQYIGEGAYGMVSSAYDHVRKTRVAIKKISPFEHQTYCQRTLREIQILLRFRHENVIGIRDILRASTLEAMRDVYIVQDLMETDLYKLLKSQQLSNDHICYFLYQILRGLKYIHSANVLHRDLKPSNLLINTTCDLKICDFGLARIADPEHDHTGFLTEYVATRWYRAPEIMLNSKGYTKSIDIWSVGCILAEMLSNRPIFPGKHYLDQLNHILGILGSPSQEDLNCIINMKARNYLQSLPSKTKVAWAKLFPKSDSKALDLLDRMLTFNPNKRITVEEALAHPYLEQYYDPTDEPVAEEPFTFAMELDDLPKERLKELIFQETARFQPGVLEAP

Regarding `C=CC(=O)N(C)c1ccccc1Nc1nc(Nc2cc(C(N)=O)ccc2C#N)ncc1Cl` [Compound I-196, 3-((5-chloro-4-((2-(N-methylacrylamido)phenyl)amino)pyrimidin-2-yl)amino)-4-cyanobenzamide], in experiment [1], the concentration for half-maximal inhibition (IC50) (commonly the concentration at which inhibition is half-maximal) is 501 to 999 nM. In addition, in experiment [2], the EC50 was > 1000 nM.

With `C=C(C)C(=O)Nc1cc(F)ccc1Nc1nc(N[C@@H]2CCC[C@H](C(N)=O)C2)ncc1Cl` (racemic) [Compound I-114, Rac-cis-3-((5-chloro-4-((4-fluoro-2-methacrylamidophenyl)amino)pyrimidin-2-yl)amino)cyclohexanecarboxamide], the IC50 in experiment [1] was > 1000 nM. For the same compound, the EC50 in experiment [2] is > 1000 nM.

For the compound `C#CC(=O)N[C@@H]1CCCC[C@H]1Nc1nc(N[C@H]2CCCN(C(=O)CO)C2)ncc1C(F)(F)F` [Compound I-34, N-((1R,2R)-2-((2-(((S)-1-(2-Hydroxyacetyl)piperidin-3-yl)amino)-5-(trifluoromethyl)pyrimidin-4-yl)amino)cyclohexyl)propiolamide], the IC50 in experiment [1] fell in the range of 101 to 500 nM. Besides, the EC50 in experiment [2] is > 1000 nM.

Take `C=CC(=O)Nc1ccccc1Nc1nc(NC(C)(C)C)ncc1C(F)(F)F` [Compound I-82, N-(2-((2-(tert-Butylamino)-5-(trifluoromethyl)pyrimidin-4-yl)amino)phenyl)acrylamide]: the IC50 in experiment [1] is 501 to 999 nM. Besides, the EC50 in experiment [2] is > 1000 nM.

Consider `C=CC(=O)Nc1ccc(C)cc1Nc1nc(NC2CCC(=O)CC2)ncc1C(F)(F)F` [Compound I-39, N-(4-Methyl-2-((2-((4-oxocyclohexyl)amino)-5-(trifluoromethyl)pyrimidin-4-yl)amino)phenyl)acrylamide], for which, in experiment [1], the concentration for half-maximal inhibition (IC50) was 101 to 500 nM. Besides, the EC50 in experiment [2] lay within 501 to 999 nM.

For the compound `CC(=O)N1CCC[C@H](Nc2ncc(C(F)(F)F)c(Nc3ccccc3NC(=O)CCl)n2)C1` [Compound I-30, (S)—N-(2-((2-((1-Acetylpiperidin-3-yl)amino)-5-(trifluoromethyl)pyrimidin-4-yl)amino)phenyl)-2-chloroacetamide], the IC50 in experiment [1] was in the range of 101 to 500 nM. Also, the EC50 in experiment [2] was > 1000 nM.

`C=CC(=O)Nc1ccccc1Nc1nc(N[C@H]2CCCN(C(=O)[C@H](C)O)C2)ncc1Cl` [Compound I-138, N-(2-((5-chloro-2-(((S)-1-((S)-2-hydroxypropanoyl)piperidin-3-yl)amino)pyrimidin-4-yl)amino)phenyl)acrylamide]: the IC50 in experiment [1] is 501 to 999 nM. Moreover, the EC50 in experiment [2] was > 1000 nM.

With `C#CC(=O)NCCCOc1cc(C)c(Nc2ncc(Cl)c(Nc3ccccc3NC(=O)C=C)n2)cc1C(N)=O` [Compound I-227, 5-((4-((2-acrylamidophenyl)amino)-5-chloropyrimidin-2-yl)amino)-4-methyl-2-(3-propiolamidopropoxy)benzamide], the concentration for half-maximal inhibition (IC50) in experiment [1] is 101 to 500 nM. Further, the EC50 in experiment [2] was > 1000 nM.

Consider `C=CC(=O)Nc1ccccc1Nc1nc(Nc2cc(NC(=O)CCCC(=O)NCCCOCCOCCOCCCNC(=O)CCCC[C@@H]3SC[C@@H]4NC(=O)N[C@@H]43)cc(C(N)=O)c2)ncc1Cl` [Compound I-304, N^1-(3-((4-((2-acrylamidophenyl)amino)-5-chloropyrimidin-2-yl)amino)-5-carbamoylphenyl)-N^5-(15-oxo-19-((3aS,4S,6aR)-2-oxohexahydro-1H-thieno[3,4-d]imidazol-4-yl)-4,7,10-trioxa-14-azanonadecyl)glutaramide], for which the IC50 in experiment [1] is 101 to 500 nM. In experiment [2], the EC50 was > 1000 nM.

As to `C=CC(=O)Nc1ccccc1Nc1nc(Nc2cc(C(N)=O)ccn2)ncc1C(F)(F)F` [Compound I-83, 2-((4-((2-Acrylamidophenyl)amino)-5-(trifluoromethyl)pyrimidin-2-yl)amino)isonicotinamide], in experiment [1], the concentration for half-maximal inhibition (IC50) was in the range of 101 to 500 nM. For the same compound, the EC50 in experiment [2] lay within 101 to 500 nM.

For `C=CC(=O)Nc1ccccc1Nc1nc(Nc2cc(C(=O)NOCCO)ccc2C)ncc1Cl` [Compound I-198, 3-((4-((2-acrylamidophenyl)amino)-5-chloropyrimidin-2-yl)amino)-N-(2-hydroxyethoxy)-4-methylbenzamide], the half-maximal inhibitory concentration (IC50) in experiment [1] lay within 101 to 500 nM. In addition, the EC50 in experiment [2] was 101 to 500 nM.

Regarding `C=CC(=O)Nc1ccccc1Nc1nc(NC2CCCCC2)ncc1Cl` [Compound I-107, N-(2-((5-chloro-2-(cyclohexylamino)pyrimidin-4-yl)amino)phenyl)acrylamide], the IC50 in experiment [1] was 101 to 500 nM. In addition, the EC50 in experiment [2] lay in the range of 101 to 500 nM.

Consider `O=C(CCl)Nc1ccccc1Nc1nc(N[C@H]2CCCN(C(=O)CCl)C2)ncc1C(F)(F)F` [Compound I-31, (S)-2-Chloro-N-(2-((2-((1-(2-chloroacetyl)piperidin-3-yl)amino)-5-(trifluoromethyl)pyrimidin-4-yl)amino)phenyl)acetamide], for which, in experiment [1], the IC50 was 501 to 999 nM. Also, in experiment [2], the EC50 was > 1000 nM.

For the compound `CC(=O)N1CCC[C@H](Nc2ncc(C(F)(F)F)c(NC3C4C=CC(C4)C3C(=O)NC#N)n2)C1` (mixture of isomers) [Compound I-25, Rac-3-((2-(((S)-1-acetylpiperidin-3-yl)amino)-5-(trifluoromethyl)pyrimidin-4-yl)-cis-amino)-N-cyanobicyclo[2.2.1]hept-5-ene-2-carboxamide], the IC50 in experiment [1] is > 1000 nM. Also, in experiment [2], the EC50 is > 1000 nM.

Regarding `C=CC(=O)Nc1ccccc1Nc1nc(Nc2cc(C(=O)NOCCO)ccc2C#N)ncc1C(F)(F)F` [Compound I-75, 3-((4-((2-Acrylamidophenyl)amino)-5-(trifluoromethyl)pyrimidin-2-yl)amino)-4-cyano-N-(2-hydroxyethoxyl)benzamide], the 50% inhibitory concentration (IC50) in experiment [1] was in the range of 101 to 500 nM. The EC50 in experiment [2] was > 1000 nM.

In the case of `C=CC(=O)N[C@@H]1CCCC[C@H]1Nc1nc(Nc2cc(C(=O)NOC)ccc2C)ncc1Cl` (racemic) [Compound I-188, Rac-trans-3-((4-((2-acrylamidocyclohexyl)amino)-5-chloropyrimidin-2-yl)amino)-N-methoxy-4-methylbenzamide], the 50% inhibitory concentration (IC50) in experiment [1] is > 1000 nM. For the same compound, the EC50 in experiment [2] was > 1000 nM.

Take `C=C(C)S(=O)(=O)Nc1cc(F)ccc1Nc1nc(Nc2cc(C(N)=O)ccc2C)ncc1C(F)(F)F` [Compound I-87, 3-((4-((4-Fluoro-2-(1-methylvinylsulfonamido)phenyl)amino)-5-(trifluoromethyl)pyrimidin-2-yl)amino)-4-methylbenzamide]: the IC50 in experiment [1] is 101 to 500 nM. Further, the EC50 in experiment [2] is > 1000 nM.

Take `C=C(C)S(=O)(=O)Nc1cc(F)ccc1Nc1nc(Nc2cc(C(C)=O)ccc2C)ncc1C(F)(F)F` [Compound I-99, N-(2-((2-((5-acetyl-2-methylphenyl)amino)-5-(trifluoromethyl)pyrimidin-4-yl)amino)-5-fluorophenyl)prop-1-ene-2-sulfonamide]: the IC50 in experiment [1] lay within 501 to 999 nM. The EC50 in experiment [2] is > 1000 nM.

As to `C=CC(=O)Nc1cc(F)ccc1Nc1nc(Nc2ccc(F)cc2OC)ncc1Cl` [Compound I-213, N-(2-((5-chloro-2-((4-fluoro-2-methoxyphenyl)amino)pyrimidin-4-yl)amino)-5-fluorophenyl)acrylamide], the IC50 in experiment [1] lay in the range of 101 to 500 nM. Further, the EC50 in experiment [2] was 101 to 500 nM.
